Source: US20070191291A1, “Compound antibacterial drugs comprising n-acetyl-d-glucosamine” (priority 2003, published 2007)
Read-outs that look alike come from different tables or passages of the source.

Key:
Diphtheroid bacillus = test: Test Example 2: preventing formation of bacterial CGC in vitro (K-B method); format: cell-based
Description: (§1) E. coli (No. 33310, purchased from Chengdu Institute of Biological Products, the Ministry of Public Health) was used in the tests. Grid design was performed by using antibiotic with different concentrations and N-acetyl-D-glucosamine having an amount of from 10 mg to 300 mg. Streak plates were conducted separately, and K-B method was employed for drugs. Colonies at marginal part of drug inhibition zone were picked and were observed under microscope. If cell length was more than 50 μm and cell number was more than 5 in each visual field, it was deemed as CGC positive and was marked with “+”; while if cell length was not greater than 50 μm and cell number was within the range from 0 to 4 in each visual field, it was deemed as CGC negative and was marked with “−”. At this time, the ratio of two substances was called “effective ratio”.
(§2) Effects tests of compound preparation comprising N-acetyl-D-glucosamine and antibiotics for preventing the formation of bacterial CGC in vitro.
(§3) The tests were carried out in vitro, wherein gram-negative amphimicrodes, gram-negative anaerobes and gram-positive aerobes were separately coated on streak plates, test drugs and control drugs were separately dissolved with same volume of sterile water for injection, 10 μl of each drug was used for preparing drug-sensitive paper, K-B method was employed in the tests of drugs, and the inhibition situations of CGC formation were observed.

Listeria = test: as above; format: cell-based
Description: as §1, §2, §3

E. coli = test: as above; format: cell-based
Description: as §1, §2, §3

Bacillus cereus = test: as above; format: cell-based
Description: as §1, §2, §3

Nucleic Acid Bacter = test: as above; format: cell-based
Description: as §1, §2, §3

Citro Bacter = test: as above; format: cell-based
Description: as §1, §2, §3

Bacteroides fragilis = test: as above; format: cell-based
Description: as §1, §2, §3

Bacillus proteus = test: as above; format: cell-based
Description: as §1, §2, §3

Klebsiella = test: as above; format: cell-based
Description: as §1, §2, §3

[1] = tested on: irritable bowel syndrome (IBS) caused by bacterial CGC; test: Test Example 5: preventing irritable bowel syndrome (IBS) caused by bacterial CGC; format: in vivo, rats; settings: for CGCs in the rat stools after one week of drug withdrawal / CGCs in the stools of the rats: rats, effective dosage for consecutive 10 days, 30 rats per group; for CGCs in the stools of the rats: stools observed during administration and within 1 week after drug withdrawal
Source text: On this basis, the rats were subjected to stimulations such as electric stimulation, intragastric administration with fructus zanthoxyli water, cold, constraint etc. in order to induce IBS, and the incidence rates of IBS of two groups were observed.

[2] = tested on: rats infected and not infected by Bacillus typhi murium; format: in vivo, Wistar rats; settings: rats infected or not by Bacillus typhi murium, consecutive week, 15 rats per group
[3] = compound injection 100 mg N-acetyl-D-glucosamine + 300 mg kanamycin, control kanamycin same dose
[4] = first of three values given respectively: electric stimulation
[5] = second of three values given respectively: intragastric administration with fructus zanthoxyli water
[6] = third of three values given respectively: cold, constraint etc.
[7] = compound preparation 100 mg N-acetyl-D-glucosamine + 300 mg cefuroxime, control 300 mg cefuroxime
[8] = compound preparation N-acetyl-D-glucosamine (50 mg) and tetracycline (150 mg), control tetracycline (150 mg)
[9] = compound preparation 100 mg N-acetyl-D-glucosamine + 400 mg norfloxacin, control norfloxacin same dose

`NC[C@H]1O[C@H](O[C@H]2[C@H](O)[C@@H](O[C@H]3O[C@H](CO)[C@@H](O)[C@H](N)[C@H]3O)[C@H](N)C[C@@H]2N)[C@H](O)[C@@H](O)[C@@H]1O` [Kanamycin, kanamycin] was tested, and the CGC formation (Diphtheroid bacillus; [3]) was “+ (If cell length was more than 50 μm and cell number was more than 5 in each visual field, it was deemed as CGC positive and was marked with “+”)”, the CGC formation (Listeria; [3]) was “+ (If cell length was more than 50 μm and cell number was more than 5 in each visual field, it was deemed as CGC positive and was marked with “+”)” and the CGC formation (E. coli; [3]) was “+ (If cell length was more than 50 μm and cell number was more than 5 in each visual field, it was deemed as CGC positive and was marked with “+”)”. The CGC formation (Bacillus cereus; [3]) was “+ (If cell length was more than 50 μm and cell number was more than 5 in each visual field, it was deemed as CGC positive and was marked with “+”)”, the CGC formation (Nucleic Acid Bacter; [3]) was “+ (If cell length was more than 50 μm and cell number was more than 5 in each visual field, it was deemed as CGC positive and was marked with “+”)” and the CGC formation (Citro Bacter; [3]) was “+ (If cell length was more than 50 μm and cell number was more than 5 in each visual field, it was deemed as CGC positive and was marked with “+”)”. The CGC formation (Bacteroides fragilis; [3]) was “+ (If cell length was more than 50 μm and cell number was more than 5 in each visual field, it was deemed as CGC positive and was marked with “+”)”, the CGC formation (Bacillus proteus; [3]) was “+ (If cell length was more than 50 μm and cell number was more than 5 in each visual field, it was deemed as CGC positive and was marked with “+”)” and the CGC formation (Klebsiella; [3]) was “+ (If cell length was more than 50 μm and cell number was more than 5 in each visual field, it was deemed as CGC positive and was marked with “+”)”. The “incidence rate of IBS” value [1, 4] was 33%, the “incidence rate of IBS” value [1, 5] was 33% and the “incidence rate of IBS” value [1, 6] was 33%. For the same compound, the “positive rates of stool CGC and intestinal mucosa CGC” value (shortened to “positive rates”) ([2]; N-acetyl-D-glucosamine (100 mg)+kanamycin (200 mg) vs only kanamycin) was 100%.
With `CO/N=C(\C(=O)N[C@@H]1C(=O)N2C(C(=O)O)=C(COC(N)=O)CS[C@H]12)c1ccco1` [Cefuroxime, cefuroxime] the CGC formation (Diphtheroid bacillus; [7]) was “+ (If cell length was more than 50 μm and cell number was more than 5 in each visual field, it was deemed as CGC positive and was marked with “+”)”, the CGC formation (Listeria; [7]) was “+ (If cell length was more than 50 μm and cell number was more than 5 in each visual field, it was deemed as CGC positive and was marked with “+”)” and the CGC formation (E. coli; [7]) was “+ (If cell length was more than 50 μm and cell number was more than 5 in each visual field, it was deemed as CGC positive and was marked with “+”)”. For the same compound, the CGC formation (Bacillus cereus; [7]) was “+ (If cell length was more than 50 μm and cell number was more than 5 in each visual field, it was deemed as CGC positive and was marked with “+”)”, the CGC formation (Nucleic Acid Bacter; [7]) was “+ (If cell length was more than 50 μm and cell number was more than 5 in each visual field, it was deemed as CGC positive and was marked with “+”)” and the CGC formation (Citro Bacter; [7]) was “+ (If cell length was more than 50 μm and cell number was more than 5 in each visual field, it was deemed as CGC positive and was marked with “+”)”. For the same compound, the CGC formation (Bacteroides fragilis; [7]) was “+ (If cell length was more than 50 μm and cell number was more than 5 in each visual field, it was deemed as CGC positive and was marked with “+”)”, the CGC formation (Bacillus proteus; [7]) was “+ (If cell length was more than 50 μm and cell number was more than 5 in each visual field, it was deemed as CGC positive and was marked with “+”)” and the CGC formation (Klebsiella; [7]) was “+ (If cell length was more than 50 μm and cell number was more than 5 in each visual field, it was deemed as CGC positive and was marked with “+”)”. The “incidence rate of IBS” value [1, 4] was 33%, the “CGCs in the rat stools after one week of drug withdrawal” value (from here on “CGCs in the rat stools after one week”) [1] was “still present” and the “CGCs in the stools of the rats” value [1] was “a large amount of CGCs appeared”. For the same compound, the “incidence rate of IBS” value [1, 5] was 33%, the “incidence rate of IBS” value [1, 6] was 33% and the “positive rates” value ([2]; N-acetyl-D-glucosamine (100 mg)+cefuroxime (300 mg) vs antibiotic only) was 100%.
`CN(C)C1C(O)=C(C(N)=O)C(=O)C2(O)C(O)=C3C(=O)c4c(O)cccc4C(C)(O)C3CC12` (centres unmarked) [Tetracyclin, tetracycline] was tested, and the CGC formation (Diphtheroid bacillus; [8]) was “+ (If cell length was more than 50 μm and cell number was more than 5 in each visual field, it was deemed as CGC positive and was marked with “+”)”, the CGC formation (Listeria; [8]) was “+ (If cell length was more than 50 μm and cell number was more than 5 in each visual field, it was deemed as CGC positive and was marked with “+”)” and the CGC formation (E. coli; [8]) was “+ (If cell length was more than 50 μm and cell number was more than 5 in each visual field, it was deemed as CGC positive and was marked with “+”)”. The CGC formation (Bacillus cereus; [8]) was “+ (If cell length was more than 50 μm and cell number was more than 5 in each visual field, it was deemed as CGC positive and was marked with “+”)”, the CGC formation (Nucleic Acid Bacter; [8]) was “+ (If cell length was more than 50 μm and cell number was more than 5 in each visual field, it was deemed as CGC positive and was marked with “+”)” and the CGC formation (Citro Bacter; [8]) was “+ (If cell length was more than 50 μm and cell number was more than 5 in each visual field, it was deemed as CGC positive and was marked with “+”)”. The CGC formation (Bacteroides fragilis; [8]) was “+ (If cell length was more than 50 μm and cell number was more than 5 in each visual field, it was deemed as CGC positive and was marked with “+”)”, the CGC formation (Bacillus proteus; [8]) was “+ (If cell length was more than 50 μm and cell number was more than 5 in each visual field, it was deemed as CGC positive and was marked with “+”)” and the CGC formation (Klebsiella; [8]) was “+ (If cell length was more than 50 μm and cell number was more than 5 in each visual field, it was deemed as CGC positive and was marked with “+”)”. For the same compound, the “incidence rate of IBS” value [1, 4] was 33%, the “CGCs in the rat stools after one week” value [1] was “still present” and the “CGCs in the stools of the rats” value [1] was “a large amount of CGCs appeared”. For the same compound, the “incidence rate of IBS” value [1, 5] was 33%, the “incidence rate of IBS” value [1, 6] was 33% and the “positive rates” value ([2]; N-acetyl-D-glucosamine (150 mg)+tetracycline (150 mg) vs only tetracycline) was 100%.
In the case of `O=C(O)c1cn(C2CC2)c2cc(N3CCNCC3)c(F)cc2c1=O` [ciprofloxacin], the “positive rates” value ([2]; N-acetyl-D-glucosamine (100 mg)+ciprofloxacin (500 mg) vs only ciprofloxacin) is reported as 100%.
For `CCn1cc(C(=O)O)c(=O)c2cc(F)c(N3CCNCC3)cc21` [Norfloxacin, norfloxacin], the CGC formation (Diphtheroid bacillus; [9]) was “+ (If cell length was more than 50 μm and cell number was more than 5 in each visual field, it was deemed as CGC positive and was marked with “+”)”, the CGC formation (Listeria; [9]) was “+ (If cell length was more than 50 μm and cell number was more than 5 in each visual field, it was deemed as CGC positive and was marked with “+”)” and the CGC formation (E. coli; [9]) was “+ (If cell length was more than 50 μm and cell number was more than 5 in each visual field, it was deemed as CGC positive and was marked with “+”)”. For the same compound, the CGC formation (Bacillus cereus; [9]) was “+ (If cell length was more than 50 μm and cell number was more than 5 in each visual field, it was deemed as CGC positive and was marked with “+”)”, the CGC formation (Nucleic Acid Bacter; [9]) was “+ (If cell length was more than 50 μm and cell number was more than 5 in each visual field, it was deemed as CGC positive and was marked with “+”)” and the CGC formation (Citro Bacter; [9]) was “+ (If cell length was more than 50 μm and cell number was more than 5 in each visual field, it was deemed as CGC positive and was marked with “+”)”. The CGC formation (Bacteroides fragilis; [9]) was “+ (If cell length was more than 50 μm and cell number was more than 5 in each visual field, it was deemed as CGC positive and was marked with “+”)”, the CGC formation (Bacillus proteus; [9]) was “+ (If cell length was more than 50 μm and cell number was more than 5 in each visual field, it was deemed as CGC positive and was marked with “+”)” and the CGC formation (Klebsiella; [9]) was “+ (If cell length was more than 50 μm and cell number was more than 5 in each visual field, it was deemed as CGC positive and was marked with “+”)”.
`CO[C@@]1(NC(=O)Cc2cccs2)C(=O)N2C(C(=O)O)=C(COC(N)=O)CS[C@@H]21` [cefoxitin] was tested, and the “incidence rate of IBS” value [1, 4] was 33%, the “CGCs in the rat stools after one week” value [1] was “still present” and the “CGCs in the stools of the rats” value [1] was “a large amount of CGCs appeared”. The “incidence rate of IBS” value [1, 5] was 33%, the “incidence rate of IBS” value [1, 6] was 33% and the “positive rates” value ([2]; N-acetyl-D-glucosamine (100 mg)+cefoxitin (150 mg) vs only cefoxitin) was 100%.
